Read-outs that look alike come from different tables or passages of the source.
Experiments:
[1] = system: HepG2 cells (human hepatocellular carcinoma cells); test: SRB cytotoxicity assay, HepG2 cells; type: cell-based
Protocol: (§1) A549 cells (human lung carcinoma cells), MCF-7 cells (human breast cancer cells), HeLa cells (human cervical cancer cells), HepG2 cells (human hepatocellular carcinoma cells), and HUVEC cells (human umbilical vein endothelial cells) were kindly provided by WeiFang Caleb Pharmaceuticals, Inc. A549 cells were cultured in Ham's F12K medium containing 10% fetal bovine serum, 2 mM L-glutamine, and 1.5 g/L sodium bicarbonate; MCF-7 cells were cultured on cell culture flask using RPMI 1640 medium with 2 mM L-glutamine adjusted to contain 1.5 g/L sodium bicarbonate, 4.5 g/L glucose, 10 mM HEPES, 1.0 mM sodium pyruvate, and 10% fetal bovine serum. Hela cells were cultured on Cell culture flask using 2 mM L-glutamine adjusted to contain 1.5 g/L sodium bicarbonate, 4.5 g/L glucose, 10 mM HEPES, and 1.0 mM sodium pyruvate in RPMI 1640 medium supplemented with 0.5 mg/ml G418 and 10% fetal bovine serum. HepG2 cells were cultured in minimum essential medium (Eagle) with 2 mM L-glutamine, Earle's BSS, 1.5 g/L sodium bicarbonate, 0.1 mM non-essential amino acids, 1.0 mM sodium pyruvate, and 10% fetal bovine serum. HUVEC cells were cultured in M199 medium containing 2 mM L-glutamine adjusted to contain 1.5 g/L sodium bicarbonate, 4.5 g/L glucose, 10 mM HEPES, 1.0 mM sodium pyruvate, ECGS, and 10% fetal bovine serum. All cells were cultured at 37°C in 5% CO2.
(§2) The cell proliferation of adherent cells was determined by sulforhodamine B assay (SRB) (Quan et al., [2009]; Li et al., [2017]). All cells were cultured in culture medium containing 10% fetal bovine serum and have been in the logarithmic growth phase. All cell types were seeded in a 96-well culture plate at a concentration of 1–5 × 10^4 cells per well at 37°C in a 5% CO2 incubator for 24 h. The cells were then exposed to seven drug concentrations of dihomooxacalix[4]arene derivatives for 72 h with each concentration located in three wells. Then, the cells were fixed with trichloroacetic acid (TCA). After washing, SRB working solution was added to the cells to […]. SRB combined with protein was dissolved in Tris base. OD values were measured for each well with a SPECTRA max 190 Cell microplate reader under 540 nm wavelength. According to the OD value, the cell growth inhibition rate was calculated.

[2] = system: HeLa cells (human cervical cancer cells); test: SRB cytotoxicity assay, HeLa cells; type: cell-based
Protocol: as §1, §2

[3] = system: MCF-7 cells (human breast cancer cells); test: SRB cytotoxicity assay, MCF-7 cells; type: cell-based; details: for inhibition at 10 µM: MCF7, 10 μM, 72 h
Protocol: as §1, §2

[4] = system: A549 cells (human lung carcinoma cells); test: SRB cytotoxicity assay, A549 cells; type: cell-based
Protocol: as §1, §2

[5] = system: HUVEC cells (human umbilical vein endothelial cells); test: SRB cytotoxicity assay, HUVEC normal cells; type: cell-based
Protocol: as §1, §2

[6] = Homo sapiens, HUVEC, 72 h, 10 μM, SRB, toxicity to normal cells
[7] = 72 h, SRB, read-out: IC50 (μM) A549

CC(C)(C)c1cc2c(O)c(c1)Cc1cc(C(C)(C)C)cc3c1OCC(=O)NCCCCNC(=O)COc1c(cc(C(C)(C)C)cc1Cc1cc(C(C)(C)C)cc(c1O)C3)COC2 [Compound 4G]
inhibition at 10 µM ([1]; 72 h, SRB): 16%
inhibition at 10 µM ([2]; 72 h, SRB): 40%
inhibition at 10 µM ([3]; SRB): 34%
melting point: 157.6 to 158.7 °C
inhibition at 10 µM ([4]; 72 h, SRB): 21%
inhibition at 10 µM [5, 6]: 34%

CC(C)(C)c1cc2c(O)c(c1)Cc1cc(C(C)(C)C)cc(c1OCC(=O)NCCO)Cc1cc(C(C)(C)C)cc(c1O)Cc1cc(C(C)(C)C)cc(c1OCC(=O)NCCO)C2 [CLX-4, 5,11,17,23-tetra-tert-butyl-25,27-bis [N-(2-hydroxyethyl)aminocarbonylmethoxyl] calix[4]arene, reference compound]
inhibition at 10 µM ([1]; 72 h, SRB): 94%
IC50 ([1]; 72 h, SRB, read-out: IC50 (μM) HepG2): 6.6 ± 0.8 µM
inhibition at 10 µM ([2]; 72 h, SRB): 92%
IC50 ([2]; 72 h, SRB, read-out: IC50 (μM) HeLa): 1.9 ± 0.2 µM
inhibition at 10 µM ([3]; SRB): 99%
IC50 ([3]; MCF7, 72 h, SRB, read-out: IC50 (μM) MCF-7): 2.1 ± 0.4 µM
inhibition at 10 µM ([4]; 72 h, SRB): 93%
IC50 [4, 7]: 2.8 ± 0.3 µM
% inhibition at 10 μM HUVEC ([5]; 10 μM, 72 h, SRB, toxicity to normal cells): 16%
inhibition at 10 µM [5, 6]: 18%

CC(C)(C)c1cc2c(O)c(c1)Cc1cc(C(C)(C)C)cc(c1OCC(=O)NCCO)Cc1cc(C(C)(C)C)cc(c1O)Cc1cc(C(C)(C)C)cc(c1OCC(=O)NCCc1ccccc1)COC2 [Compound 4R, 7,13,19,25-tetra-tert-butyl-28,30-di-hydroxy-27-(N-phenethyl-aminocarbonylmethoxyl)-29-(N-(2-hydroxyethyl)-aminocarbonylmethoxyl)-2,3-dihomo-3-oxacalix[4]arene]
melting point: 120.7 to 123.3 °C

CC(C)(C)c1cc2c(O)c(c1)Cc1cc(C(C)(C)C)cc(c1OCC(=O)NCCO)Cc1cc(C(C)(C)C)cc(c1O)Cc1cc(C(C)(C)C)cc(c1OCC(=O)NC1CCCC1)COC2 [Compound 4Q, 7,13,19,25-tetra-tert-butyl-28,30-di-hydroxy-27-(N-clopentyl-aminocarbonylmethoxyl)-29-(N-(2-hydroxyethyl)-aminocarbonylmethoxyl)-2,3-dihomo-3-oxacalix[4]arene]
melting point: 138.3 to 140.5 °C

CCCCNC(=O)COc1c2cc(C(C)(C)C)cc1Cc1cc(C(C)(C)C)cc(c1O)Cc1cc(C(C)(C)C)cc(c1OCC(=O)NCCCC)Cc1cc(C(C)(C)C)cc(c1O)COC2 [Compound 4K, 7,13,19,25-tetra-tert-butyl-28,30-di-hydroxy-27,29-di-(N-butyl-aminocarbonylmethoxyl)-2,3-dihomo-3-oxacalix[4] arene]
inhibition at 10 µM ([1]; 72 h, SRB): 6%
inhibition at 10 µM ([2]; 72 h, SRB): 42%
inhibition at 10 µM ([3]; SRB): 41%
melting point: 119.5 to 120.8 °C
inhibition at 10 µM ([4]; 72 h, SRB): 65%
IC50 [4, 7]: 4.5 ± 1.4 µM
inhibition at 10 µM [5, 6]: 1%

CC(=O)O[C@H]1C(=O)[C@@]2(C)[C@H]([C@H](OC(=O)c3ccccc3)[C@]3(O)C[C@H](OC(=O)[C@H](O)[C@@H](NC(=O)c4ccccc4)c4ccccc4)C(C)=C1C3(C)C)[C@]1(OC(C)=O)CO[C@@H]1C[C@@H]2O [Paclitaxel, paclitaxel, reference compound]
IC50 ([1]; printed in the % inhibition column of Table 1, read-out: IC50 HepG2 (positive control)): 0.005 µM
IC50 ([2]; HeLa, printed in the % inhibition column of Table 1, read-out: IC50 HeLa (positive control)): 0.0027 µM
IC50 ([3]; MCF7, printed in the % inhibition column of Table 1, read-out: IC50 MCF-7 (positive control)): 0.0008 µM
IC50 ([4]; printed in the % inhibition column of Table 1, read-out: IC50 A549 (positive control)): 0.00059 µM
IC50 ([5]; Homo sapiens, HUVEC, printed in the % inhibition column of Table 1, read-out: IC50 HUVEC (positive control)): 0.001 µM

CC(C)(C)c1cc2c(O)c(c1)Cc1cc(C(C)(C)C)cc(c1OCC(=O)NC1CCCC1)Cc1cc(C(C)(C)C)cc(c1O)Cc1cc(C(C)(C)C)cc(c1OCC(=O)NC1CCCC1)COC2 [Compound 4M, 7,13,19,25-tetra-tert-butyl-28,30-di-hydroxy-27,29-di-(N-clopentyl-aminocarbonylmethoxyl)-2,3-dihomo-3-oxacalix[4]arene]
inhibition at 10 µM ([1]; 72 h, SRB): 12%
inhibition at 10 µM ([2]; 72 h, SRB): 52%
inhibition at 10 µM ([3]; SRB): 29%
melting point: 145.9 to 148.2 °C
inhibition at 10 µM ([4]; 72 h, SRB): 66%
IC50 [4, 7]: 10.1 ± 1.8 µM
inhibition at 10 µM [5, 6]: 14%

CC(C)NC(=O)COc1c2cc(C(C)(C)C)cc1Cc1cc(C(C)(C)C)cc(c1O)Cc1cc(C(C)(C)C)cc(c1OCC(=O)NC(C)C)Cc1cc(C(C)(C)C)cc(c1O)COC2 [Compound 4I, 7,13,19,25-tetra-tert-butyl-28,30-di-hydroxy-27,29-di-(N-isopropyl-aminocarbonylmethoxyl)-2,3-dihomo-3-oxa calix[4]arene]
inhibition at 10 µM ([1]; 72 h, SRB): 9%
inhibition at 10 µM ([2]; 72 h, SRB): 44%
inhibition at 10 µM ([3]; SRB): 17%
melting point: 133.3 to 135.7 °C
inhibition at 10 µM ([4]; 72 h, SRB): 45%
inhibition at 10 µM [5, 6]: 16%

CC(C)CNC(=O)COc1c2cc(C(C)(C)C)cc1Cc1cc(C(C)(C)C)cc(c1O)Cc1cc(C(C)(C)C)cc(c1OCC(=O)NCC(C)C)Cc1cc(C(C)(C)C)cc(c1O)COC2 [Compound 4J, 7,13,19,25-tetra-tert-butyl-28,30-di-hydroxy-27,29-di-(N-isobutyl-aminocarbonylmethoxyl)-2,3-dihomo-3-oxacalix [4]arene]
inhibition at 10 µM ([1]; 72 h, SRB): 10%
inhibition at 10 µM ([2]; 72 h, SRB): 35%
inhibition at 10 µM ([3]; SRB): 40%
melting point: 128.1 to 130.8 °C
inhibition at 10 µM ([4]; 72 h, SRB): 54%
IC50 [4, 7]: 16.9 ± 3.2 µM
inhibition at 10 µM [5, 6]: 0%

CC(C)(C)c1cc2c(O)c(c1)Cc1cc(C(C)(C)C)cc3c1OCC(=O)NCCCNC(=O)COc1c(cc(C(C)(C)C)cc1Cc1cc(C(C)(C)C)cc(c1O)C3)COC2 [Compound 4F]
inhibition at 10 µM ([1]; 72 h, SRB): 9%
inhibition at 10 µM ([2]; 72 h, SRB): 59%
inhibition at 10 µM ([3]; SRB): 46%
melting point: 189.5 to 191.4 °C
inhibition at 10 µM ([4]; 72 h, SRB): 63%
IC50 [4, 7]: 2.9 ± 0.7 µM
inhibition at 10 µM [5, 6]: 42%

CCNC(=O)COc1c2cc(C(C)(C)C)cc1Cc1cc(C(C)(C)C)cc(c1O)Cc1cc(C(C)(C)C)cc(c1OCC(=O)NCC)Cc1cc(C(C)(C)C)cc(c1O)COC2 [Compound 4H, 7,13,19,25-tetra-tert-butyl-28,30-di-hydroxy-27,29-di-(N-ethyl-aminocarbonylmethoxyl)-2,3-dihomo-3-oxacalix [4]arene]
inhibition at 10 µM ([1]; 72 h, SRB): 31%
inhibition at 10 µM ([2]; 72 h, SRB): 41%
inhibition at 10 µM ([3]; SRB): 37%
melting point: 138.9 to 141.2 °C
inhibition at 10 µM ([4]; 72 h, SRB): 31%
inhibition at 10 µM [5, 6]: 6%

CC(C)(C)c1cc2c(O)c(c1)Cc1cc(C(C)(C)C)cc3c1OCC(=O)NCCNC(=O)COc1c(cc(C(C)(C)C)cc1Cc1cc(C(C)(C)C)cc(c1O)C3)COC2 [Compound 4E]
inhibition at 10 µM ([1]; 72 h, SRB): 21%
inhibition at 10 µM ([2]; 72 h, SRB): 46%
inhibition at 10 µM ([3]; SRB): 50%
melting point: 204.8 to 206.3 °C
inhibition at 10 µM ([4]; 72 h, SRB): 60%
IC50 [4, 7]: 12.4 ± 2.2 µM
inhibition at 10 µM [5, 6]: 26%

COc1ccc(CCNC(=O)COc2c3cc(C(C)(C)C)cc2Cc2cc(C(C)(C)C)cc(c2O)Cc2cc(C(C)(C)C)cc(c2OCC(=O)NCCc2ccc(OC)c(OC)c2)Cc2cc(C(C)(C)C)cc(c2O)COC3)cc1OC [Compound 4P, 7,13,19,25-tetra-tert-butyl-28,30-di-hydroxy-27,29-di-(N-(3,4-dimethoxyphenethyl)-aminocarbonylmethoxyl)-2,3-dihomo-3-oxacalix [4]arene]
inhibition at 10 µM ([1]; 72 h, SRB): 11%
inhibition at 10 µM ([2]; 72 h, SRB): 37%
inhibition at 10 µM ([3]; SRB): 0%
melting point: 117.4 to 120.1 °C
inhibition at 10 µM ([4]; 72 h, SRB): 22%
inhibition at 10 µM [5, 6]: 0%

CC(C)(C)c1cc2c(O)c(c1)Cc1cc(C(C)(C)C)cc(c1OCC(=O)NCCO)Cc1cc(C(C)(C)C)cc(c1O)Cc1cc(C(C)(C)C)cc(c1OCC(=O)N(CCO)CCO)COC2 [Compound 4S, 7,13,19,25-tetra-tert-butyl-28,30-di-hydroxy-27-(N,N-bis(2-hydroxyethyl)-aminocarbonylmethoxyl)-29-(N-(2-hydroxyethyl)-aminocarbonylmethoxyl)-2,3-dihomo-3-oxacalix[4]arene]
melting point: 144.4 to 146.2 °C
